From EP3628664A1, “IRREVERSIBLE INHIBITORS OF KRAS G12C MUTANT” (Max-Planck-Gesellschaft zur Förderung der Wissenschaften …, priority 2018, dated 2020) come the findings set out here.

The target of series [1] is T1, KRas G12C (Homo sapiens, UniProt P01116, G12C). Put plainly: Tethering assay: covalent adduct formation determined by MALDI. The following applies: 20 mM HEPES, pH 7.5, 150 mM NaCl, room temperature; for Covalent adduct formation 30 min: after 30 min; for Covalent adduct formation 24h: after 24h; for Covalent adduct formation 48h: after 48h. It is filed as binding. On the procedure: Protein was incubated with the compounds in 20 mM HEPES, pH 7.5, 150 mM NaCl at room temperature for the specific times. For MALDI experiments, a saturated solution of sinapic acid (Aldrich) in H2O (0.1% TFA) / ACN (2:1) was used as matrix. 1 µL of the samples was mixed with 5 µL of matrix, and 1 µL of this mixture was placed on an MTP 384 ground steel target plate and dried in air. Mass spectra were obtained over the m/z range 17.000-21.000 using a Bruker UltrafleXtreme TOF/TOF mass spectrometer. […]

In series [2] the target is T1, KRas G12C. Put plainly: Competitive LC-MS experiment with KRas G12C in the presence of glutathione. The class given is binding. As to the method:
In competitive experiments it was shown that the inventive compounds bind selectively to the KRas G12C mutant in the presence of glutathione (GSH).
Cell indices ±s.d. were measured in technical triplicates and biological duplicates. Staurosporin was used as control compound.

The nature of series [3]: LC-MS stability of compound with glutathione in PBS buffer at 37 °C. The class given is physicochemical.
A short description of series [4]: Hydrolysis stability in HEPES buffer (LC-MS). It is filed as physicochemical. As to conditions: HEPES buffer (pH 7.5), 37 °C, 24 hours. On the procedure:
Compound 4 was dissolved in HEPES (4-(2-hydroxyethyl)-1-piperazineethanesulfonic acid) buffer (pH 7.5) at 37 °C for 24 hours.

Regarding `CC(C)(C)c1cc(NCC(=O)N2CCN(C(=O)c3cnc(Cl)nc3)CC2)c(O)cc1Cl` [Compound 3, 2-((5-(tert-butyl)-4-chloro-2-hydroxyphenyl)amino)-1-(4-(2-chloropyrimidine-5-carbonyl)piperazin-1-yl)ethan-1-one], at KRas G12C [1], the “Covalent adduct formation 30 min” value is given as “+++ (covalent labeling > 90%)”, the “Covalent adduct formation 24h” value is reported as “+++ (covalent labeling > 90%)” and the “Covalent adduct formation 48h” value is recorded as “+++ (covalent labeling > 90%)”.

As for `CC(C)(C)c1cc(NCC(=O)N2CCN(C(=O)c3cnc(Cl)cn3)CC2)c(O)cc1Cl` [Compound 8, 2-((5-(tert-butyl)-4-chloro-2-hydroxyphenyl)amino)-1-(4-(5-chloropyrazine-2-carbonyl)piperazin-1-yl)ethan-1-one], on KRas G12C [1], the “Covalent adduct formation 30 min” value is reported as “+ (5 < covalent labeling ≤ 50)”, the “Covalent adduct formation 24h” value was “++ (50 < covalent labeling ≤ 90)” and the “Covalent adduct formation 48h” value is listed as “+++ (covalent labeling > 90%)”.

Consider `CCC(C)(C)c1cc(NCC(=O)N2CCN(C(=O)c3cnc(Cl)nc3)CC2)c(O)cc1Cl` [Compound 4, 2-((4-chloro-2-hydroxy-5-(tert-pentyl)phenyl)amino)-1-(4-(2-chloropyrimidine-5-carbonyl)piperazin-1-yl)ethan-1-one], for which, at KRas G12C [1], the “Covalent adduct formation 30 min” value is on record as “+++ (covalent labeling > 90%)”, the “Covalent adduct formation 24h” value is “+++ (covalent labeling > 90%)” and the “Covalent adduct formation 48h” value was “+++ (covalent labeling > 90%)”. Moreover, at KRas G12C [2] (KRas G12C, compound 4 and glutathione, up to 5 hours), the glutathione-4 adduct formation result is given as “No glutathione-4 adduct formation could be observed”. The “covalent adduct formation with KRas G12C” value on KRas G12C [2] (in the presence of glutathione, after 1 hour) is on record as “Nearly complete”. For the same compound, the “incubation time after which compound remains unreacted” value in series [3] (in the presence of glutathione) is given as “more than 18 hours”. Further, in series [3] (mixture with glutathione), the “formation of the glutathione-4 covalent adduct” value is “occurs slowly”. For the same compound, the stability entry in series [3] (mixture with glutathione, up to 24 hours) is given as “good stability”. In addition, the remaining at 18 h in series [3] (pH 7.5, with glutathione, after 18 hours incubation time, read-out: compound remains unreacted) was ~50%. Also, the stability against hydrolysis entry in series [4] is “stable against hydrolysis”.

With `CC(C)(C)c1ccc(O)c(NCC(=O)N2CCN(C(=O)c3cnc(Cl)nc3)CC2)c1` [Compound 1, 2-((5-(tert-butyl)-2-hydroxyphenyl)amino)-1-(4-(2-chloropyrimidine-5-carbonyl)piperazin-1-yl)ethan-1-one], at KRas G12C [1], the “Covalent adduct formation 30 min” value is “+++ (covalent labeling > 90%)”, the “Covalent adduct formation 24h” value is reported as “+++ (covalent labeling > 90%)” and the “Covalent adduct formation 48h” value was “+++ (covalent labeling > 90%)”.

For the compound `CCC(C)(C)c1ccc(O)c(NCC(=O)N2CCN(C(=O)c3cnc(Cl)nc3)CC2)c1` [Compound 2, 1-(4-(2-chloropyrimidine-5-carbonyl)piperazin-1-yl)-2-((2-hydroxy-5-(tert-pentyl)phenyl)amino)ethan-1-one], at KRas G12C [1], the “Covalent adduct formation 30 min” value is reported as “+++ (covalent labeling > 90%)”, the “Covalent adduct formation 24h” value is on record as “+++ (covalent labeling > 90%)” and the “Covalent adduct formation 48h” value is reported as “+++ (covalent labeling > 90%)”.

`Cc1cc(C)c(NCC(=O)N2CCN(C(=O)c3cnc(Cl)nc3)CC2)c(C)c1` [Compound 9, 1-(4-(2-chloropyrimidine-5-carbonyl)piperazin-1-yl)-2-(mesitylamino)ethan-1-one]: at KRas G12C [1], the “Covalent adduct formation 30 min” value is listed as “+++ (covalent labeling > 90%)”, the “Covalent adduct formation 24h” value is listed as “+++ (covalent labeling > 90%)” and the “Covalent adduct formation 48h” value was “+++ (covalent labeling > 90%)”.

With `CCC(C)(C)c1cc(NCC(=O)N2CCN(C(=O)c3ccnc(Cl)n3)CC2)c(O)cc1Cl` [Compound 6, 2-((4-chloro-2-hydroxy-5-(tert-pentyl)phenyl)amino)-1-(4-(2-chloropyrimidine-4-carbonyl)piperazin-1-yl)ethan-1-one], on KRas G12C [1], the “Covalent adduct formation 30 min” value was “+ (5 < covalent labeling ≤ 50)”, the “Covalent adduct formation 24h” value is “++ (50 < covalent labeling ≤ 90)” and the “Covalent adduct formation 48h” value was “+++ (covalent labeling > 90%)”.

`CCC(C)(C)c1cc(NCC(=O)N2CCN(S(=O)(=O)c3cnc(Cl)nc3)CC2)c(O)cc1Cl` [Compound 7, 2-((4-chloro-2-hydroxy-5-(tert-pentyl)phenyl)amino)-1-(4-((2-chloropyrimidin-5-yl)sulfonyl)piperazin-1-yl)ethan-1-one]: on KRas G12C [1], the “Covalent adduct formation 30 min” value was “+++ (covalent labeling > 90%)”, the “Covalent adduct formation 24h” value was “+++ (covalent labeling > 90%)” and the “Covalent adduct formation 48h” value was “+++ (covalent labeling > 90%)”.

As to `CC1(c2cc(NCC(=O)N3CCN(C(=O)c4cnc(Cl)nc4)CC3)c(O)cc2Cl)CC1` [Compound 5, 2-((4-chloro-2-hydroxy-5-(1-methylcyclopropyl)phenyl)amino)-1-(4-(2-chloropyrimidine-5-carbonyl)piperazin-1-yl)ethan-1-one], on KRas G12C [1], the “Covalent adduct formation 30 min” value is given as “+++ (covalent labeling > 90%)”, the “Covalent adduct formation 24h” value is given as “+++ (covalent labeling > 90%)” and the “Covalent adduct formation 48h” value is “+++ (covalent labeling > 90%)”.
